Patent US20250084039A1, “4-SUBSTITUTED AMINOISOQUINOLINE DERIVATIVES” (Purdue Research Foundation, priority 2016, published 2025)
Read-outs that look alike come from different tables or passages of the source. Values belong to the compound of their own block, whether it stands above or below them.

How the values were obtained:
[1] = target: CDK6 (Homo sapiens (Human), UniProt Q00534); assay: DiscoverX Kd Elect binding
Method: (§1) HCK is expressed more in human primary leukemic stem cells than in human normal hematopoietic stem cells. […] Other protein kinases such as SYK, BRAF, p38 (p38MAPK), PDGFRα/β, FGFR1, RET, FLT4, Tie2 have also been linked to leukemia. […] Thus, it was tested if HSN286 and analogs were also targeting kinases that play critical roles in AML. […] (Table 9). The inhibition of the Src-kinase family could be important clinically because these kinases are downstream of FLT3. In the event of FLT3 mutation, the inhibition of the Src-family kinases could still lead to proliferation inhibition.

[2] = target: CDK9 (Homo sapiens (Human), UniProt P50750); assay: DiscoverX Kd Elect binding
CDK9, sequence (P50750 whole entry): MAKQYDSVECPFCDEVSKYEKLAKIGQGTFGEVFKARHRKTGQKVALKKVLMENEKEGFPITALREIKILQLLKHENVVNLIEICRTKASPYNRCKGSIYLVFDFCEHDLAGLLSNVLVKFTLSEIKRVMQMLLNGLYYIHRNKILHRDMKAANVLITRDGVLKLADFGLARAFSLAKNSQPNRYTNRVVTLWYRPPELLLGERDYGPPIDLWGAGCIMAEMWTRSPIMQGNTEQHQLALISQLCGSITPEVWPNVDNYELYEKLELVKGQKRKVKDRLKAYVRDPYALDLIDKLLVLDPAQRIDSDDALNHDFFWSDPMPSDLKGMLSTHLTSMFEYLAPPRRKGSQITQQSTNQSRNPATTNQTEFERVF
Method: as §1

[3] = tested on: MV4-11; assay: Proliferation inhibition screen at 100 nM; format: cell-based; settings: 100 nM compound, FIG. 10
Method: To determine inhibition at 100 nM or […], 96-well plates were seeded the afternoon before treatment. Plates were then treated with compound diluted in dimethyl sulfoxide (DMSO) as well as a DMSO control the following day for 72 hours. After this time the plates were then treated with 10 μL of CellTiter-Blue Cell Viability Assay (Promega, Madison, WI) for 4 hours. Then the plates were read on a plate reader (Bio-Tek, Winooski, VT). Data was analyzed on Excel as a percent of the DMSO vehicle.
From these cell proliferation studies, MV4-11 appeared to be more sensitive to the compounds than the other cell lines (Table 6A). […] To identify group of compounds potently inhibiting cancer cell proliferation, a lower concentration of compounds (100 nM) were used to screen against MV4-11 (FIG. 10). From these experiments, potent amide compounds A7, A10, A15, A16, A18, A20, B15 and D30 (as indicated by ***, FIG. 10) were selected. […] Typically amides that contain basic amines are included in compound libraries to improve aqueous solubility but it appears that the presence of a basic amine in the side chain of the compounds also facilitated the actual inhibition of MV4-11 proliferation.

[4] = tested on: p-38 phosphorylation; assay: Western blot in MV4-11; format: cell-based, human
Method: (§2) Effect of HSW630-1 on protein expression was tested in the MV4-11 leukemia cell line. Total protein extracts were prepared using RIPA buffer (SIGMA) supplemented with Complete Mini™ protease inhibitor and PHOStop™ phosphatase inhibitors (Roche). Equal amounts of proteins (up to 25 μg) were separated on 4-12% NuPAGE gels in 1×MOPS or 1×MES buffer (Invitrogen) and transferred onto PVDF membranes (Millipore). The membrane was blocked with 5% dry milk in 1×TBS/0.1% Tween 20 (TBST) for at least 1 h at room temperature and incubated with human specific primary antibodies: FLT3, Phospho-FLT3, c-Myc (Cell Signaling Technologies), KRAS (Santa Cruz), or mouse anti-β-actin (SIGMA) overnight at 4° C. The membrane was washed 3 times in TBST and incubated with a horseradish peroxidase-conjugated secondary anti-rabbit or anti-mouse antibody (Cell Signaling Technologies) for 1 h at room temperature. Blots were again washed and the signal was detected with SuperSignal West Femto Chemiluminescent Substrate (Pierce) and exposed to HyBlot CL® autoradiography film (Denville).
(§3) To determine if the phosphorylation of FLT3, SRC kinase and downstream effectors or kinases (such as STAT3 [44], STAT5 [45] and p-38 [46]) could be affected by the compounds. […] The level of SRC kinase increased over time (amount at the 48 h time point is greater than at the 6 and 24 h time points). Unfortunately the bands for the phosphorylated SRC kinase are blurred despite repeated attempts to get clearer bands. […] From the above Western analyses, it is confirmed that the proliferation inhibition of MV4-11 is due to the inhibition of FLT3 signaling axis.

[5] = tested on: STAT5 phosphorylation; assay: Western blot in MV4-11; format: cell-based, human
Method: as §2, §3

[6] = tested on: STAT3 phosphorylation; assay: Western blot in MV4-11; format: cell-based, human
Method: as §2, §3

[7] = tested on: FLT3 phosphorylation; assay: Western blot in MV4-11; format: cell-based, human
Method: Total protein extracts were prepared using RIPA buffer (SIGMA) supplemented with Complete Mini™ protease inhibitor and PHOStop™ phosphatase inhibitors (Roche). […] The membrane was blocked with 5% dry milk in 1×TBS/0.1% Tween 20 (TBST) for at least 1 h at room temperature and incubated with human specific primary antibodies: FLT3, Phospho-FLT3, c-Myc (Cell Signaling Technologies), KRAS (Santa Cruz), or mouse anti-β-actin (SIGMA) overnight at 4° C. The membrane was washed 3 times in TBST and incubated with a horseradish peroxidase-conjugated secondary anti-rabbit or anti-mouse antibody (Cell Signaling Technologies) for 1 h at room temperature. Blots were again washed and the signal was detected with SuperSignal West Femto Chemiluminescent Substrate (Pierce) and exposed to HyBlot CL® autoradiography film (Denville).

[8] = tested on: THP1; assay: Selectivity, proliferation IC50; format: cell-based; settings: Homo sapiens, THP-1; read-out: IC50 THP1 (non-FLT3-driven AML line)
Method: Cell lines were seeded into 96-well plates the afternoon prior to treatment. Approximately 18 hours later, compounds were diluted in dimethyl sulfoxide (DMSO) and added to cells. Plates were incubated for 72 hours and cells viability determined with CellTiter-Blue Cell Viability Assay (Promega, Madison, WI). Plates were read after 4 additional hours of incubation at 37° C. using plate reader (Bio-Tek, Winooski. VT). Data was analyzed and graphed using GraphPad Prism Software (Graphpad. La Jolla, CA).

[9] = tested on: MV4-11; assay: In vivo efficacy, NSG mice injected with MV4-11; settings: 25 mg/kg, three times per week, NSG mice with MV4-11
Method: Method: Six week old female NSG mice were injected intravenously with 1×10^6 logarithmically growing MV4-11 cells expressing luciferase (MV4-11). Luciferase expressing leukemia cells were imaged using the IVIS Xenogen system (Perkin Elmer, Waltham MA). On day of imaging, mice are injected IP with 150 mg/kg luciferin (Perkin Elmer, Waltham, MA), anaesthetized and then placed in imaging chamber. Maximal luminescence is recorded and then averaged among each treatment group. Ten days post cell injection, mice were imaged and then sorted into groups so that leukemic burden was similar and dosing started. Mice were dosed either with vehicle (10% DMSO/10% Tween 20/80% saline) or 25 mg/kg of compounds three times per week for the duration of the experiment. Mice were weighed and observed five days per week and imaged once per week.

[10] = Liver microsomal stability assay; format: in vitro ADME, mouse; settings: compared to the other analogs
[11] = target: FLT3 ITD (Homo sapiens, UniProt P36888)
FLT3 ITD, sequence (P36888 whole entry, looked up, stated change not applied): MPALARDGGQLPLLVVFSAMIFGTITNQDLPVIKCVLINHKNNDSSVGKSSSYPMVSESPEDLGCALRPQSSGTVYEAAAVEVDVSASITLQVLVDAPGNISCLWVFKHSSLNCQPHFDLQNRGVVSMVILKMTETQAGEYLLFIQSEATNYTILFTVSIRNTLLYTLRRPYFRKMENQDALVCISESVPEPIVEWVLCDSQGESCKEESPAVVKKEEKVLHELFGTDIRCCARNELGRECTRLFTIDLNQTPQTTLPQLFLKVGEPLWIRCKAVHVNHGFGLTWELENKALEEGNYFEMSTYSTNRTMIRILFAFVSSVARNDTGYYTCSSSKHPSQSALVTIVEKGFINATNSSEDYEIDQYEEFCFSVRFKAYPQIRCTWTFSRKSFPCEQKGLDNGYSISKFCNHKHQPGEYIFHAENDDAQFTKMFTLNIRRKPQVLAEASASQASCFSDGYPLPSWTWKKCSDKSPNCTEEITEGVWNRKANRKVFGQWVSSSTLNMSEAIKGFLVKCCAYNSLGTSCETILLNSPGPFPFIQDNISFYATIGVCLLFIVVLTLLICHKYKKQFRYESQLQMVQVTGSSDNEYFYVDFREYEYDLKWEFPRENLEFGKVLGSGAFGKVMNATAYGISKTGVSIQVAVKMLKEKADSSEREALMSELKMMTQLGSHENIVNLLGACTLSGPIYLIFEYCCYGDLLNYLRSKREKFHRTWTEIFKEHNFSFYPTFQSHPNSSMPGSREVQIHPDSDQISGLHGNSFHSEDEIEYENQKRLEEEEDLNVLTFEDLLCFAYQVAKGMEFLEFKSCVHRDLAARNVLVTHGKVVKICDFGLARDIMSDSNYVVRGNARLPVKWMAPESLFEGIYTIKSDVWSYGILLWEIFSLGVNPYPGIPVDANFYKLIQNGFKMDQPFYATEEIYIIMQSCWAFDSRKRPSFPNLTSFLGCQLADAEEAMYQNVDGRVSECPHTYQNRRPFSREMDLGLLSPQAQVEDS

[12] = tested on: MV4-11; assay: Activity against AML cell line MV4-11 (CellTiter-Blue, 72 h); format: cell-based
In short: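 Suspension cells seeded at 4000 per well, left overnight, then exposed to compound from 10 nM to 100 μM for 72 h. Viability by CellTiter-Blue resazurin fluorescence after 4 h (Ex 560, Em 590); IC50 from concentration-response.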

CDK6, sequence (Q00534 whole entry): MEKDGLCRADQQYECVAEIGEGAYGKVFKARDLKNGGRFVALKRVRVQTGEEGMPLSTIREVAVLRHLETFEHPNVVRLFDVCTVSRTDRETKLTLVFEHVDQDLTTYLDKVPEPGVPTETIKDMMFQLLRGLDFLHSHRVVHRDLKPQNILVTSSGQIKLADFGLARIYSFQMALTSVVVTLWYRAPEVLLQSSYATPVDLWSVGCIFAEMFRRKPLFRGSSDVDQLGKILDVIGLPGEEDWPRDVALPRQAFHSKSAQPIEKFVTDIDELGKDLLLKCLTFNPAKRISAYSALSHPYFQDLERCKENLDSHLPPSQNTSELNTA

Structure (SMILES): Cc1ccc(C(=O)Nc2ccc(CN3CCN(C)CC3)c(C(F)(F)F)c2)cc1C#Cc1c(N)ncc2ccc(Cl)cc12 [HSN286]
Kd [1]: 28000 nM
Kd [2]: 2300 nM
inhibition of MV4-11 proliferation in words [3]: potent
p-38 phosphorylation (Western) [4]: inhibited
STAT5 phosphorylation (Western) [5]: inhibited
STAT3 phosphorylation (Western) [6]: inhibited
FLT3 phosphorylation (Western) [7]: inhibited
IC50 [8]: 2320 nM
in-vivo efficacy (survival) [9]: not efficacious
stability in mouse liver microsomes [10]: preformed much better

Structure (SMILES): Cc1ccc(C(=O)Nc2ccc(CN3CCN(C)CC3)c(C(F)(F)F)c2)cc1C#Cc1cnc(N)c2ncccc12 [HSN356, 3-((8-amino-1,7-naphthyridin-5-yl)ethynyl)-4-methyl-N-(4-((4-methylpiperazin-1-yl)methyl)-3-(trifluoromethyl)phenyl)benzamide]
IC50 FLT3 ITD enzymatic inhibition [11]: single digit

IC50 ([12]; 72 h, read-out: IC50 against MV4-11/uM): 0.003 µM
IC50 ([12]; FIG. 1, read-out: anticancer activities (IC50) against MV4-11): 0.003 µM
IC50 ([12]; Table 2, read-out: IC50 (nM) against MV4-11 (AML cell line)): 0.0055 ± 0.0013 µM
Structure (SMILES): CN(C)CC(O)CNC(=O)c1ccc(C#Cc2c(N)ncc3ccc(Cl)cc23)cc1 (centres unmarked) [HSM1702]
